IC50 data for 54 molecules are collected here from patent US10934302B1, “SHP2 phosphatase inhibitors and methods of use thereof” (Relay Therapeutics, Inc., priority 2018, dated 2021).

Some results are limits rather than exact numbers.

For this assay, the target named is SHP2 (Homo sapiens (Human), UniProt Q06124). The assay is described as follows: SHP2 allosteric inhibition assay (DiFMUP prompt fluorescence). The conditions noted are these: 0.25 nM SHP2 activated with 0.5 μM peptide IRS1_pY1172(dPEG8)pY1222; substrate DiFMUP. It counts as biochemical.
SHP2, sequence (Q06124 whole entry): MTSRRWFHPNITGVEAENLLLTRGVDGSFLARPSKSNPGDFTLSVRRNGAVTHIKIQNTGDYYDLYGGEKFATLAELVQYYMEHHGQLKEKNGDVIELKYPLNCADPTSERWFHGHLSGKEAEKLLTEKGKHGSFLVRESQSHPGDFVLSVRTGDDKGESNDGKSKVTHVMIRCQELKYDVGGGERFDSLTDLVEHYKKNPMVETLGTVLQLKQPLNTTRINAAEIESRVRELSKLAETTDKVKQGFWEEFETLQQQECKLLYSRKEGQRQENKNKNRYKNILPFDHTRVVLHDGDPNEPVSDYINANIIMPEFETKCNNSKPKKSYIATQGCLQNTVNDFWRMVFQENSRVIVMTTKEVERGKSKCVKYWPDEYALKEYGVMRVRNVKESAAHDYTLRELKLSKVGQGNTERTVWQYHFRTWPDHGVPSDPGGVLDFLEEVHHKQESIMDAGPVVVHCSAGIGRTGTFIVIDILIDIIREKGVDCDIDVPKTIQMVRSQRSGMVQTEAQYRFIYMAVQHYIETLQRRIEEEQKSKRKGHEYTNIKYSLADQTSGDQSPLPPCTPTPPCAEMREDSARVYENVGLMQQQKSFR
One may read the IC50 as the midpoint of a concentration-inhibition curve. Turning to `Cn1cc(-c2ccc3c(n2)CCCN3c2n[nH]c3nc(N4CCC5(CC4)Cc4ccc(F)cc4[C@H]5N)cnc23)cn1` [Example 40], the IC50 is > 10000 nM. Turning to `CS(=O)(=O)c1cccc2c1CCCN2c1n[nH]c2nc(N3CCC4(CC3)Cc3ccc(F)cc3[C@H]4N)cnc12` [Example 41], the IC50 is ≤ 50 nM. On to `Cn1cc(-c2ccc3c(n2)CCCN3c2n[nH]c3nc(N4CCC5(CC4)Cc4c(F)cccc4[C@H]5N)cnc23)cn1` [Example 42], for which the half-maximal inhibitory concentration (IC50) was ≤ 50 nM.

As for `CN1CCN(c2n[nH]c3nc(N4CCC5(CC4)Cc4ccccc4[C@H]5N)cnc23)c2ccc(C#N)cc21` [Example 43], the IC50 was ≤ 50 nM. On to `NC1c2ncccc2CC12CCN(c1cnc3c(N4CCCc5ncccc54)n[nH]c3n1)CC2` (stereo not drawn) [Example 45], for which the IC50 is ≤ 50 nM. In the case of `Cn1cc(-c2ccc3c(n2)CCCN3c2n[nH]c3nc(N4CCC5(CC4)Cc4cccnc4C5N)cnc23)cn1` (stereo not drawn) [Example 46], the IC50 is ≤ 50 nM. The same measure for `Cn1cc(-c2ccc3c(n2)CCCN3c2n[nH]c3nc(N4CCC5(CC4)Cc4cccc(F)c4[C@H]5N)cnc23)cn1` [Example 48]: ≤ 50 nM.

On to `N[C@@H]1c2cnccc2CC12CCN(c1cnc3c(N4CCCc5ncccc54)n[nH]c3n1)CC2` [Example 50], for which the IC50 is ≤ 50 nM.

For the molecule `Cn1ccc2c(c1=O)CCCN2c1n[nH]c2nc(N3CCC4(CC3)Cc3cc(F)ccc3[C@H]4N)cnc12` [Example 52], the IC50 was ≤ 50 nM. For `Cn1ccc2c(c1=O)CCCN2c1n[nH]c2nc(N3CCC4(CC3)Cc3c(F)cccc3[C@H]4N)cnc12` [Example 53] the value was ≤ 50 nM; for `N[C@@H]1c2cccc(F)c2OC12CCN(c1cnc3c(N4CCCc5ncccc54)n[nH]c3n1)CC2` [Example 54], ≤ 50 nM; for `Cn1ccc2c(c1=O)CCCN2c1n[nH]c2nc(N3CCC4(CC3)Oc3c(F)cccc3[C@H]4N)cnc12` [Example 55], ≤ 50 nM. As to `CS(=O)(=O)c1cccc2c1CCCN2c1n[nH]c2nc(N3CCC4(CC3)Cc3c(F)cccc3[C@H]4N)cnc12` [Example 56], the 50% inhibitory concentration (IC50) is ≤ 50 nM. Turning to `Cn1ccc2c(c1=O)CCCN2c1n[nH]c2nc(N3CCC4(CC3)Oc3ccccc3[C@H]4N)cnc12` [Example 57], the concentration for half-maximal inhibition (IC50) is ≤ 50 nM. In the case of `Cn1ccc2c(c1=O)CCCN2c1n[nH]c2nc(N3CCC4(CC3)Cc3ccc(F)cc3[C@H]4N)cnc12` [Example 58], the IC50 was ≤ 50 nM. For `CS(=O)(=O)c1cccc2c1CCCN2c1n[nH]c2nc(N3CCC4(CC3)Cc3cccc(F)c3[C@H]4N)cnc12` [Example 59] the value was ≤ 50 nM; for `Cn1cc(-c2ccc3c(n2)CCCN3c2n[nH]c3nc(N4CCC5(CC4)Oc4ccccc4[C@H]5N)cnc23)cn1` [Example 60], ≤ 50 nM; for `N[C@@H]1c2ccccc2OC12CCN(c1cnc3c(N4CCCc5nc(-c6ncco6)ccc54)n[nH]c3n1)CC2` [Example 61], ≤ 50 nM. For `N[C@H]1c2c(F)ccc(F)c2CC12CCN(c1cnc3c(N4CCCc5ncccc54)n[nH]c3n1)CC2` [Example 62] the value was ≤ 50 nM; for `Nc1nccc(Sc2cnc(N3CCC4(CC3)Cc3ccccc3[C@H]4N)cn2)c1Cl` [Example 63], 50 to 1000 nM; for `N[C@@H]1c2ccccc2OC12CCN(c1cnc(Oc3ccnc(Cl)c3Cl)cn1)CC2` [Example 64], ≤ 50 nM. For `N[C@@H]1c2ccccc2CC12CCN(c1cnc3c(N4CCCc5cc(OS(=O)(=O)F)ccc54)n[nH]c3n1)CC2` [Example 65, 1-{6-[(3S)-3-amino-1,3-dihydrospiro[indene-2,4′-piperidin]-1′-yl]-1H-pyrazolo[3,4-b]pyrazin-3-yl}-1,2,3,4-tetrahydroquinolin-6-yl sulfurofluoridate] the value was ≤ 50 nM; for `N[C@@H]1c2ccccc2CC12CCN(c1cnc3c(-c4ccnc(Cl)c4F)n[nH]c3n1)CC2` [Example 67, (3S)-1′-[3-(2-chloro-3-fluoropyridin-4-yl)-1H-pyrazolo[3,4-b]pyrazin-6-yl]-1,3-dihydrospiro[indene-2,4′-piperidin]-3-amine], ≤ 50 nM; for `N[C@@H]1c2ccccc2CC12CCN(c1cnc3c(-c4cccc5ncccc45)n[nH]c3n1)CC2` [Example 68], ≤ 50 nM. Take `N[C@H]1c2ccccc2CC12CCN(c1cnc3c(-c4cccc5ncccc45)n[nH]c3n1)CC2` [Example 69]: the half-inhibitory concentration (IC50) is ≤ 50 nM. The same measure for `N[C@@H]1c2ccccc2CC12CCN(c1cnc3c(-c4ccnc(Cl)c4Cl)n[nH]c3n1)CC2` [Example 70]: 50 to 1000 nM; for `N[C@H]1c2ccccc2CC12CCN(c1cnc3c(-c4ccnc(Cl)c4Cl)n[nH]c3n1)CC2` [Example 71]: ≤ 50 nM.

As to `N[C@@H]1c2ccccc2CC12CCN(c1cnc3c(-c4cc5cc[nH]c5cc4F)n[nH]c3n1)CC2` [Example 72], the IC50 was ≤ 50 nM. With `N[C@H]1c2ccccc2CC12CCN(c1cnc3c(-c4cc5cc[nH]c5cc4F)n[nH]c3n1)CC2` [Example 73], the IC50 was ≤ 50 nM. In the case of `N[C@@H]1c2ccccc2CC12CCN(c1cnc3c(-c4ccncc4F)n[nH]c3n1)CC2` [Example 74], the 50% inhibitory concentration (IC50) was ≤ 50 nM. For `N[C@H]1c2ccccc2CC12CCN(c1cnc3c(-c4ccncc4F)n[nH]c3n1)CC2` [Example 75] the value was ≤ 50 nM.

Take `N[C@@H]1c2ccccc2CC12CCN(c1ncnc3c(-c4cccc(Cl)c4Cl)csc13)CC2` [Example 76]: the IC50 was ≤ 50 nM. For `Nc1nccc(-c2n[nH]c3nc(N4CCC5(CC4)Cc4ccccc4[C@@H]5N)cnc23)c1F` [Example 77, (R)-1′-(3-(2-amino-3-fluoropyridin-4-yl)-1H-pyrazolo[3,4-b]pyrazin-6-yl)-1,3-dihydrospiro[indene-2,4′-piperidin]-1-amine] the value was ≤ 50 nM; for `Nc1nccc(-c2n[nH]c3nc(N4CCC5(CC4)Cc4ccccc4[C@H]5N)cnc23)c1F` [Example 78, (S)-1′-(3-(2-amino-3-fluoropyridin-4-yl)-1H-pyrazolo[3,4-b]pyrazin-6-yl)-1,3-dihydrospiro[indene-2,4′-piperidin]-1-amine], ≤ 50 nM; for `Nc1nccc(-c2n[nH]c3nc(N4CCC5(CC4)Cc4ccccc4[C@H]5N)cnc23)c1Cl` [Example 79, (3S)-1′-[3-(2-amino-3-chloropyridin-4-yl)-1H-pyrazolo[3,4-b]pyrazin-6-yl]-1,3-dihydrospiro[indene-2,4′-piperidin]-3-amine], ≤ 50 nM.

Turning to `Nc1nccc(Sc2cnc(N3CCC4(CC3)Cc3ccccc3[C@@H]4N)cn2)c1Cl` [Example 80, (R)-1′-(5-((2-amino-3-chloropyridin-4-yl)thio)pyrazin-2-yl)-1,3-dihydrospiro[indene-2,4′-piperidin]-1-amine], the 50% inhibitory concentration (IC50) is ≤ 50 nM. The same measure for `Nc1nccc(Sc2cnc(N3CCC4(CC3)Cc3ccccc3[C@H]4N)cn2)c1Cl` [Example 81, (S)-1′-(5-((2-amino-3-chloropyridin-4-yl)thio)pyrazin-2-yl)-1,3-dihydrospiro[indene-2,4′-piperidin]-1-amine]: ≤ 50 nM; for `N[C@@H]1c2cccc(F)c2OC12CCN(c1cnc(Sc3ccnc(Cl)c3Cl)cn1)CC2` [Example 82, (3R)-1′-{5-[(2,3-dichloropyridin-4-yl)sulfanyl]pyrazin-2-yl}-7-fluoro-3H-spiro[1-benzofuran-2,4′-piperidin]-3-amine]: ≤ 50 nM; for `Cc1nc(Sc2ccnc(N)c2Cl)cnc1N1CCC2(CC1)Cc1ccccc1[C@H]2N` [Example 84, (S)-1′-(5-((2-amino-3-chloropyridin-4-yl)thio)-3-methylpyrazin-2-yl)-1,3-dihydrospiro[indene-2,4′-piperidin]-1-amine]: ≤ 50 nM. `Nc1nccc(Sc2n[nH]c3nc(N4CCC5(CC4)Cc4ccccc4[C@H]5N)cnc23)c1Cl` [Example 86, (S)-1′-(3-((2-amino-3-chloropyridin-4-yl)thio)-1H-pyrazolo[3,4-b]pyrazin-6-yl)-1,3-dihydrospiro[indene-2,4′-piperidin]-1-amine]: the half-inhibitory concentration (IC50) was ≤ 50 nM.

For the molecule `N[C@@H]1c2ccccc2CC12CCN(c1nc3[nH]nc(Sc4ccnc(Cl)c4Cl)c3nc1CO)CC2` [Example 88], the 50% inhibitory concentration (IC50) is ≤ 50 nM.

Take `Cc1nccc(Sc2n[nH]c3nc(N4CCC5(CC4)Cc4ccccc4[C@H]5N)c(CO)nc23)c1Cl` [Example 89]: the IC50 was ≤ 50 nM. In turn, `Cc1nccc(Sc2n[nH]c3nc(N4CCC5(CC4)Cc4ccccc4[C@H]5N)cnc23)c1Cl` [Example 90] yielded a concentration for half-maximal inhibition (IC50) of 50 to 1000 nM.

The molecule `N[C@@H]1c2ccccc2CC12CCN(c1cnc3c(Sc4ccnc(Cl)c4Cl)n[nH]c3n1)CC2` [Example 91] displayed an IC50 of 1000 to 10000 nM.

Turning to `N[C@H]1c2ccccc2CC12CCN(c1cnc3c(Sc4ccnc(Cl)c4Cl)n[nH]c3n1)CC2` [Example 92], the IC50 is ≤ 50 nM. For `Nc1nccc(Sc2cnc(N3CCC4(CC3)Cc3ccccc3[C@H]4N)nc2)c1Cl` [Example 93] the value was ≤ 50 nM; for `N[C@@H]1c2ccccc2OC12CCN(c1cnc(Sc3ccnc(Cl)c3Cl)cn1)CC2` [Example 94], ≤ 50 nM. Turning to `N[C@@H]1c2ccccc2OC12CCN(c1cnc(Sc3ccnc(Cl)c3F)cn1)CC2` [Example 95], the half-maximal inhibitory concentration (IC50) was ≤ 50 nM. As for `N[C@@H]1c2ccccc2OC12CCN(c1cnc(Sc3cccnc3Cl)cn1)CC2` [Example 96], the IC50 is ≤ 50 nM. Regarding `Nc1nccc(Sc2ccc(N3CCC4(CC3)Cc3ccccc3[C@H]4N)cn2)c1Cl` [Example 97], the 50% inhibitory concentration (IC50) lay in the range of 50 to 1000 nM. `CS(=O)(=O)c1cccc2c1CCCN2c1n[nH]c2nc(N3CCC4(CC3)Cc3ccccc3[C@H]4N)c(CO)nc12` [Example 98, {6-[(3S)-3-amino-1,3-dihydrospiro[indene-2,4′-piperidin]-1′-yl]-3-(5-methanesulfonyl-1,2,3,4-tetrahydroquinolin-1-yl)-1H-pyrazolo[3,4-b]pyrazin-5-yl}methanol] displayed an IC50 of 50 to 1000 nM.

Take `NC1c2ccccc2CC12CCN(c1nc3[nH]nc(N4CCCc5ncccc54)c3nc1CO)CC2` (stereo not drawn) [Example 99]: the IC50 is ≤ 50 nM. Consider `N[C@@H]1c2ccccc2CC12CCN(c1nc3[nH]nc(N4CCCc5ncccc54)c3nc1CO)CC2` [Example 100], for which the concentration for half-maximal inhibition (IC50) fell in the range of 50 to 1000 nM. For `Cn1cc(-c2ccc3c(n2)CCCN3c2n[nH]c3nc(N4CCC5(CC4)Cc4ccccc4[C@H]5N)c(CO)nc23)cn1` [Example 101] the value was 50 to 1000 nM.
